Data published in patent EP0732934B1, “LONG-ACTING INJECTION SUSPENSIONS OF AN LHRH ANALOGUE AND A PROCESS FOR THEIR PREPARATION” (Zentaris GmbH, priority 1993, dated 2005).
Structures can show the parent of a compound that is named as a salt.

Tests used:
[1] = test system: testosterone plasma levels; assay: Duration of action in the animal: testosterone suppression after subcutaneous application; type: in vivo; details: male rats
Experimental: Suspensions of the precipitates were applied subcutaneously to male rats in the dose 0.5 mg cetrorelix/kg body weight and determined after application as a measure of the effect of the peptide on testosterone plasma levels. The effect of the cetrorelix consists in reduction of the testosterone level. As a reference an injection suspension was tested as well, that prepared according to DE 4023134 A1 and which contained the peptide embonate in poly(lactic acid, glycolic acid) copolymers. The duration of action of a non-sustained release dosage form of cetrorelix was determined via examination of the aqueous solution of cetrorelix acetate.

[2] = in vivo, po; cited from earlier work
[3] = compared to its embonic acid salt, subcutaneous injection in mice; cited from earlier work

In the case of “Ac-DNal-DpCl-Phe-DPal-Ser-Tyr-DCit-Leu-Arg-Pro-D-Ala-NH2 [cetrorelix acetate]”, the “effect of testosterone suppression achieved after the application” value ([1]; 0.5 mg cetrorelix/kg body weight subcutaneously) is reported as 6 h and the “duration of testosterone suppression under 1 ng/ml” value ([1]; 0.5 mg cetrorelix/kg subcutaneously, values for subgroups of animals (acetate: two animals, three further animals; embonate: one animal)) is reported as 24 h and up to 48 h.

For `CN(C)CCCN1c2ccccc2CCc2ccccc21` [imipramine HCl], the “difference to imipramine embonate” value [2] is given as “no difference”.

In the case of `CCc1nc(N)nc(N)c1-c1ccc(Cl)cc1` [pyrimethamine], the “pharmacokinetic behaviour, plasma level course and AUC” value [3] is listed as “no difference”.
